Where “and” joins values, the source holds several entries; their conditions need not be identical. Equal values may be shown once. Read-outs that look alike come from different tables or passages of the source.

Series [1] in a line: log P by HPLC on reversed-phase C18 columns (OECD Guideline 117). The class given is physicochemical. To be noted: for chromatographic logP: reversed-phase C18 HPLC column; for logP[a]: method [a]; for logP[b]: method [b]; for log P[a]: acidic range; for log P[n]: neutral range. The method, then:
The log P values were determined in accordance with OECD Guideline 117 (EC Directive 92/69/EEC) by HPLC (high-performance liquid chromatography) using reversed-phase (RP) columns (C18), by the following methods:
[a] The LC-MS determination in the acidic range was carried out at pH 2.7 with 0.1% aqueous formic acid and acetonitrile (contains 0.1% formic acid) as mobile phases; linear gradient from 10% acetonitrile to 95% acetonitrile.
[b] LC-MS determination in the neutral range was carried out at pH 7.8 with 0.001 molar aqueous ammonium hydrogencarbonate solution and acetonitrile as mobile phases; linear gradient from 10% acetonitrile to 95% acetonitrile.

For series [2], the system named is green peach aphid (Myzus persicae). Nature of the series: Myzus persicae spray test (Chinese cabbage leaf discs). The series is classed as in vivo. The following applies: application rate 500 g/ha, after 5 or 6 days, Chinese cabbage leaf discs. The method, then: Myzus persicae—Spray Test
Solvent: 78 parts by weight of acetone • • 1.5 parts by weight of dimethylformamide
Emulsifier: alkylaryl polyglycol ether
To produce a suitable active compound preparation, 1 part by weight of active compound is dissolved using the stated parts by weight of solvent and made up with water containing an emulsifier concentration of 1000 ppm until the desired concentration is attained. To produce further test concentrations, the preparation is diluted with emulsifier-containing water.
Discs of Chinese cabbage leaves (Brassica pekinensis) infested by all stages of the green peach aphid (Myzus persicae) are sprayed with an active compound preparation of the desired concentration.
After 5 or 6 days, the efficacy in % is determined. 100% means that all the aphids were killed; 0% means that no aphids were killed.

Setting [3] is: pH 2.7, acidic range, pH 2.7, 0.1% aqueous formic acid / acetonitrile, read-out: log P[a].
The mark [4] stands for this setting: pH 2.7, method [a], read-out: logP[a].
The mark [5] stands for this setting: pH 7.8, method [b], read-out: logP[b].
Where [6] appears, read: pH 2.7, 0.1% aqueous formic acid / acetonitrile.
The mark [7] stands for this setting: pH 7.8, 0.001 molar aqueous ammonium hydrogencarbonate / acetonitrile.

Consider `CN(C(=O)c1cncn1Cc1ccccc1)c1cccnc1` [1-benzyl-N-methyl-N-(pyridin-3-yl)-1H-imidazole-5-carboxamide], for which the chromatographic logP amounted to 0.85 in series [1] (setting [3]) and 1.4 in series [1] (pH 7.8, neutral range, pH 7.8, 0.001 molar aqueous ammonium hydrogencarbonate / acetonitrile, read-out: log P[n]).

Consider `CN(C(=O)c1c(Br)nc(Sc2ncccn2)n1C)c1cccnc1` [I-A-13], for which, in series [1], the “logP[a]” value came out at 1.25 and the “logP[b]” value worked out at 1.31.

On to `CN(C(=O)c1cnc(Sc2ccccc2[N+](=O)[O-])n1C)c1cccnc1` [I-A-16], for which the “efficacy (aphids killed)” value in series [2] was determined as 90%. Also, in series [1], the “logP[a]” value is 1.68 and the “logP[b]” value is 1.78.

Consider `CN(C(=O)c1cnc(SC2CCCCC2)n1C)c1cccnc1` [I-A-17], for which, in series [1], the “logP[a]” value was found to be 1.89 and the “logP[b]” value is recorded as 2.26.

Consider `CC(=O)CSc1ncc(C(=O)N(C)c2cccnc2)n1C` [I-A-23], for which the “efficacy (aphids killed)” value in series [2] was determined as 90%. Further, in series [1], the “logP[a]” value is 0.67 and 0.71.

Turning to `CCOC(=O)CSc1ncc(C(=O)N(C)c2cccnc2)n1C` [I-A-24], the “efficacy (aphids killed)” value in series [2] worked out at 90%. Moreover, in series [1], the “logP[a]” value is on record as 1.20 and the “logP[b]” value was determined as 1.34.

Take `COC(=O)CSc1ncc(C(=O)N(C)c2cccnc2)n1C` [I-A-25]: in series [2], the “efficacy (aphids killed)” value is listed as 90%. Further, in series [1], the “logP[a]” value was found to be 0.88 and the “logP[b]” value came out at 1.09.

With `CN(C(=O)c1cnc(SCC(=O)C(C)(C)C)n1C)c1cccnc1` [I-A-28], the “efficacy (aphids killed)” value in series [2] was determined as 90%. In addition, in series [1], the “logP[a]” value is on record as 1.53 and the “logP[b]” value came to 1.78.

Turning to `CN(C(=O)c1cnc(SCC(=O)O)n1C)c1cccnc1` [I-A-29], in series [1], the “logP[a]” value was determined as 0.28 and the “logP[b]” value was 1.05.

Consider `CN(C(=O)c1cnc(SCC(=O)C2CC2)n1C)c1cccnc1` [I-A-31], for which the “efficacy (aphids killed)” value in series [2] is reported as 90%. In addition, in series [1], the “logP[a]” value was found to be 0.97 and the “logP[b]” value turned out to be 1.28.

`CN(C(=O)c1cnc(SCC(N)=O)n1C)c1cccnc1` [I-A-32]: in series [1], the “logP[a]” value turned out to be 0.11 and the “logP[b]” value stood at 0.50.

Consider `CNC(=O)CSc1ncc(C(=O)N(C)c2cccnc2)n1C` [I-A-33], for which the chromatographic logP in series [1] (setting [4]) was found to be 0.33; in series [1] (setting [5]), 0.62.

Regarding `CN(C)C(=O)CSc1ncc(C(=O)N(C)c2cccnc2)n1C` [I-A-34], in series [1], the “logP[a]” value turned out to be 0.59 and the “logP[b]” value is reported as 0.81.

Regarding `CCSc1ncc(C(=O)Nc2cccnc2)n1C` [I-A-41], the “efficacy (aphids killed)” value in series [2] is reported as 90%. In series [1], the “logP[a]” value was 0.71 and the “logP[b]” value was found to be 1.54.

Take `CNC(=O)CS(=O)(=O)c1ncc(C(=O)N(C)c2cccnc2)n1C` [I-A-42]: in series [1], the “logP[a]” value is 0.35 and the “logP[b]” value is 0.55.

As for `CN(C(=O)c1cnc(Sc2ccc(C(C)(C)C)cc2)n1C)c1cccnc1` [I-A-63], in series [1], the “logP[a]” value stood at 2.75 and the “logP[b]” value is recorded as 2.92.

On to `CN(C)C(=O)c1ccccc1Sc1ncc(C(=O)N(C)c2cccnc2)n1C` [I-A-67], for which, in series [2], the “efficacy (aphids killed)” value was determined as 90%. Further, in series [1], the “logP[a]” value worked out at 1.17 and the “logP[b]” value came out at 1.25.

`CN(C(=O)c1cnc(Sc2cccc([N+](=O)[O-])c2)n1C)c1cccnc1` [I-A-68]: the “efficacy (aphids killed)” value in series [2] worked out at 100%. Besides, in series [1], the “logP[a]” value worked out at 1.71 and the “logP[b]” value was 1.77.

Consider `COc1ccccc1Sc1ncc(C(=O)N(C)c2cccnc2)n1C` [I-A-72], for which, in series [1], the “logP[a]” value worked out at 1.59 and the “logP[b]” value was found to be 1.74.

For `CN(C(=O)c1cnc(S(=O)(=O)c2cccc(Cl)c2)n1C)c1cccnc1` [I-A-73], the “efficacy (aphids killed)” value in series [2] was 90%. In series [1], the “logP[a]” value was 1.81 and the “logP[b]” value came out at 1.87.

For the compound `CN(C(=O)c1cnc([S+]([O-])c2cccc(Cl)c2)n1C)c1cccnc1` (stereo not drawn) [I-A-74], the “efficacy (aphids killed)” value in series [2] was found to be 90%. Moreover, in series [1], the “logP[a]” value was determined as 1.45 and the “logP[b]” value was 1.55.

Turning to `CN(C(=O)c1cnc([S+]([O-])c2ccc(C(C)(C)C)cc2)n1C)c1cccnc1` (stereo not drawn) [I-A-75], in series [2], the “efficacy (aphids killed)” value is given as 90%. Besides, in series [1], the “logP[a]” value stood at 2.14 and the “logP[b]” value was 2.19.

Turning to `CN(C(=O)c1cnc(S(=O)(=O)c2ccc(C(C)(C)C)cc2)n1C)c1cccnc1` [I-A-76], in series [1], the “logP[a]” value is listed as 2.53 and the “logP[b]” value is 2.55.

With `COc1ccc(S(=O)(=O)c2ncc(C(=O)N(C)c3cccnc3)n2C)cc1` [I-A-81], in series [1], the “logP[a]” value was 1.53 and the “logP[b]” value is recorded as 1.58.

As to `CN(C(=O)c1cnc(S(=O)(=O)c2ccc(F)cc2)n1C)c1ccc[n+]([O-])c1` [I-A-83], the pest or weed control at 500 g/ha in series [2] (Myzus persicae, foliar, read-out: efficacy (aphids killed)) was 90%. Moreover, the chromatographic logP came to 1.12 in series [1] (setting [4]) and 1.23 in series [1] (setting [5]).

`CN(C(=O)c1cnc(S(=O)(=O)c2ccccn2)n1C)c1cccnc1` [I-A-85]: in series [1], the “logP[a]” value is 1.01 and the “logP[b]” value worked out at 1.10.

In the case of `CN(C(=O)c1cnc(S(=O)(=O)c2ccccc2)n1C)c1cccnc1` [I-A-88], in series [1], the “logP[a]” value came out at 1.37 and the “logP[b]” value is on record as 1.47.

Take `CN(C(=O)c1cnc(S(=O)(=O)c2ccc([N+](=O)[O-])cc2)n1C)c1cccnc1` [I-A-90]: in series [1], the “logP[a]” value was found to be 1.58 and the “logP[b]” value was 1.68.

Turning to `CN(C)C(=O)c1cccc([S+]([O-])c2ncc(C(=O)N(C)c3cccnc3)n2C)c1` (stereo not drawn) [I-A-91], in series [1], the “logP[a]” value was 0.76 and the “logP[b]” value was 0.96.

In the case of `CN(C)C(=O)c1ccccc1S(=O)(=O)c1ncc(C(=O)N(C)c2cccnc2)n1C` [I-A-92], in series [1], the “logP[a]” value came out at 1.12 and the “logP[b]” value amounted to 1.29.

Regarding `CCN(C(=O)c1cnc(Sc2ncccn2)n1C)c1cccnc1` [I-A-98], the “efficacy (aphids killed)” value in series [2] came out at 90%. Moreover, in series [1], the “logP[a]” value turned out to be 1.04 and the “logP[b]” value amounted to 1.22.

`CN(C(=O)c1cnc(Sc2ncccn2)n1Cc1ccccc1)c1cccnc1` [I-A-111, 1-benzyl-N-methyl-N-(pyridin-3-yl)-2-(pyrimidin-2-ylsulphanyl)-1H-imidazole-5-carboxamide]: the results for the chromatographic logP in series [1] (setting [4]) and in series [1] (setting [5]) were 1.73 and 1.78, respectively.

In the case of `CN(C(=O)c1cnc(SCc2cncn2C)n1C)c1cccnc1` [I-A-114], in series [1], the “logP[a]” value was 0.20 and the “logP[b]” value was 0.85.

As for `CN(C(=O)c1cnc(SCc2ccn(C)n2)n1C)c1cccnc1` [I-A-115], in series [1], the “logP[a]” value stood at 0.76 and the “logP[b]” value is reported as 1.12.

Consider `CN(C(=O)c1cnc(SCc2nccn2C)n1C)c1cccnc1` [I-A-118], for which the “logP[b]” value in series [1] was 0.89.

Take `CN(C(=O)c1cnc(SCc2ccc(Cl)c(Cl)c2)n1C)c1cccnc1` [I-A-121]: in series [1], the “logP[a]” value was found to be 2.51 and the “logP[b]” value is recorded as 2.62.

As for `Cc1cccc(C)c1CSc1ncc(C(=O)N(C)c2cccnc2)n1C` [I-A-129], in series [1], the “logP[a]” value came to 2.32 and the “logP[b]” value was 2.44.

As to `COC(=O)C(C)(C)NC(=O)CSc1ncc(C(=O)N(C)c2cccnc2)n1C` [I-A-133], in series [1], the “logP[a]” value stood at 1.06 and the “logP[b]” value stood at 1.22.

For the compound `COC(=O)c1cnc(Sc2ncc(C(=O)N(C)c3cccnc3)n2C)n1C` [I-A-143], in series [1], the “logP[a]” value came out at 1.12 and the “logP[b]” value came out at 1.27.

With `Cc1cc(C)nc(Sc2ncc(C(=O)O)n2C)n1` [IV-1], the “log P[a]” value in series [1] (setting [6]) is 0.81.

For `Cn1c(C(=O)O)cnc1SCC1CC1` [IV-2], the “log P[a]” value in series [1] (setting [6]) turned out to be 0.62. For the same compound, the “log P[n]” value in series [1] (setting [7]) is given as −0.18.

As to `Cn1c(C(=O)O)cnc1Br` [IX-1, 1-methyl-2-bromoimidazole-5-carboxylic acid], the chromatographic logP in series [1] (setting [3]) amounted to 0.31.

On to `COC(=O)c1cnc(Sc2nc(C)cc(C)n2)n1C` [VIII-1], for which the “log P[a]” value in series [1] (setting [6]) is 1.78. Besides, in series [1] (setting [7]), the “log P[n]” value amounted to 1.80.

Take `COC(=O)c1cnc(SCC2CC2)n1C` [VIII-2]: in series [1] (setting [6]), the “log P[a]” value is 2.06. Further, in series [1] (setting [7]), the “log P[n]” value worked out at 2.26.

Consider `CN(C(=O)c1cnc(Br)n1C)c1cccnc1` [XI-1], for which, in series [1] (setting [6]), the “log P[a]” value is given as 0.65. Also, in series [1] (setting [7]), the “log P[n]” value came to 0.93.

With `Cn1cc(C(=O)O)nc1Br` [XIX-1, 2-bromo-1-methyl-1H-imidazole-4-carboxylic acid], in series [1] (setting [3]), the chromatographic logP came out at 0.

Regarding `CN(C(=O)c1cncn1C)c1cccnc1` [XV-1], the “log P[n]” value in series [1] (setting [7]) turned out to be 0.42.

Take `Cn1cnc(C(=O)OC(C)(C)C)c1` [XVII-1, tert-butyl 1-methyl-1H-imidazole-4-carboxylate]: in series [1] (setting [3]), the chromatographic logP was 0.74.

In the case of `Cn1cc(C(=O)OC(C)(C)C)nc1Br` [XVIII-1, tert-butyl 2-bromo-1-methyl-1H-imidazole-4-carboxylate], in series [1] (setting [3]), the chromatographic logP was 1.27.

Consider `CN(C(=O)c1cn(C)c(Br)n1)c1cccnc1` [XXI-1], for which, in series [1] (setting [7]), the “log P[n]” value was found to be 0.76.

The values are drawn from patent publication US10368545B2, “Substituted 2-thioimidazolylcarboxamides as pesticides” (BAYER CROPSCIENCE AKTIENGESELLSCHAFT, priority 2015, dated 2019).
